Test results from PubChem BioAssay (NCI).
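Cultured in 96-well plates, cells were exposed to test compound for 48 hours across five concentrations. TGI: concentration producing complete growth inhibition.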

Assays:
Experiment in all cases: NCI tumour cell line growth inhibition, 48 h
[1] = tested on: TK-10 renal
[2] = tested on: MOLT-4 leukemia
[3] = tested on: SF-295 CNS
[4] = tested on: MDA-MB-231 breast
[5] = tested on: SW-620 colon
[6] = tested on: IGROV1 ovarian
[7] = tested on: ACHN renal
[8] = tested on: NCI-H460 lung
[9] = tested on: HOP-62 NSCLC
[10] = tested on: NCI/ADR-RES ovarian
[11] = tested on: SK-OV-3 ovarian
[12] = tested on: LOX IMVI melanoma
[13] = tested on: NCI-H226 lung
[14] = tested on: SK-MEL-5 melanoma
[15] = tested on: OVCAR-4 ovarian
[16] = tested on: A498 renal
[17] = tested on: EKVX NSCLC
[18] = tested on: K-562 leukemia
[19] = tested on: UACC-62 melanoma
[20] = tested on: SNB-19 CNS
[21] = tested on: SK-MEL-28 melanoma
[22] = tested on: SF-268 CNS
[23] = tested on: OVCAR-8 ovarian
[24] = tested on: MALME-3M melanoma
[25] = tested on: CCRF-CEM leukemia
[26] = tested on: NCI-H522 lung
[27] = tested on: U251 CNS
[28] = tested on: OVCAR-3 ovarian
[29] = tested on: HL-60(TB) leukemia
[30] = tested on: HCT-116 colon
[31] = tested on: 786-0 renal
[32] = tested on: HCC-2998 colon
[33] = tested on: HCT-15 colon
[34] = tested on: UACC-257 melanoma
[35] = tested on: HT29 colon
[36] = tested on: PC-3 prostate
[37] = tested on: DU-145 prostate
[38] = tested on: MDA-MB-435
[39] = tested on: RPMI-8226 leukemia
[40] = tested on: SR leukemia
[41] = tested on: NCI-H23 lung
[42] = tested on: SN12C renal
[43] = tested on: CAKI-1 renal
[44] = tested on: KM12 colon
[45] = tested on: HS 578T breast
[46] = tested on: SF-539 CNS
[47] = tested on: A549 NSCLC
[48] = tested on: T-47D breast
[49] = tested on: MCF7 breast
[50] = tested on: MDA-N
[51] = tested on: HOP-92 NSCLC
[52] = tested on: COLO 205 colon
[53] = tested on: M14 melanoma
[54] = tested on: OVCAR-5 ovarian
[55] = tested on: UO-31 renal
[56] = tested on: RXF 393 renal
[57] = tested on: SK-MEL-2 melanoma

Measured: TGI

Nc1ccc(Nc2cc(=O)[nH]c(=O)[nH]2)cc1
not listed: [51] | [52] | [53] | [54] | [55] | [56] | [57]
> 100 µM: all other assays above

NC(=O)c1cc(N(CCO)CCO)c([N+](=O)[O-])cc1[N+](=O)[O-]
not listed: [4] | [23]
> 100 µM: all other assays above
